We go through 1 substance from US9284580B2 (priority 2010, dated 2016).

One assay deals with E. coli. To be noted: 2% (v/v) butanol; cited from earlier work.
Assay [1] relates to C. beijerinckii ATCC 55025. From the text: Cell growth was monitored by measuring the optical density at 600 nm (OD600) of the culture broth.
For the next assay, the system named is S. cerevisiae strains. To be noted: 1% (v/v) butanol; most S. cerevisiae strains; cited from earlier work.
The next assay concerns P. putida. To be noted: several strains of P. putida; cited from earlier work.

Like-named read-outs stand apart in the source and are kept apart here.

On to butanol, for which the growth entry with E. coli was “no growth was observed”. Also, the growth rate reduction in assay [1] (1% (v/v) butanol) was approximately 20%; in assay [1] (1.5% (v/v) butanol), approximately 85%. For the same substance, the cell growth result in assay [1] (2% (v/v) butanol, no cell growth even after 10 days incubation) was “completely inhibited”. Also, the “relative specific growth rate” value in the assay with S. cerevisiae strains is reported as 60%. Besides, the tolerated butanol concentration result with P. putida is reported as “up to 6 % (w/v)”.
